Measured values reported in PMC10654507, “A cleavable chimeric peptide with targeting and killing domains enhances LPS neutralization and antibacterial properties against multi-drug resistant E. coli” (Communications Biology, 2023).
Where two headings read alike, the source gives them in different places. Residues, ends and D or L forms follow the SMILES beside them.

Key:
MDR E. coli CVCC195 [1] = assay: Infiltrated inflammatory cells in lung sections, E. coli-challenged mice; assay type: in vivo, mouse; conditions: Fig. 6c source data, peptide + E. coli, mean
Protocol: Fig. 6 Effects of cleavable chimeric peptide R7 on lung injury in mice. […] Lung injury was analyzed histologically at 12 h or 24 h. a Histopathological images of lung sections after staining with hematoxylin and eosin (H&E). Images are presented at a magnification of 100×. b Pathological analysis of lung. Lung injury involves in inflammation (such as peribronchial, perivascular, intrabronchial, and pulmonary interstitial one), bronchial exudate, and alveolar septal thickening, respectively. The specific degree of lung injury of each mouse is assessed by Score 0 (asymptomatic), Score 1 (mild), Score 2 (moderate), and Score 3 (severe), respectively. c The number of counted infiltrated inflammatory cells within processed lung sections from a. Data represent the mean ± SD of three independent experiments. Different lower-case letters indicate a significant difference between the two groups (p < 0.05).
Lung tissues were taken at 12 h and 24 h, respectively, washed with PBS, and fixed in 4% paraformaldehyde overnight. After dehydration in different concentrations of ethanol (including 75%, 85%, 90%, and 95%, respectively), the tissues were embedded in paraffin, sliced, and stained with hematoxylin. Observation was performed under a light microscope. The mice only injected with E. coli, LPS or PBS was regard as the negative or blank control.

RAW264.7 cells = assay: Cytotoxicity, MTT method; assay type: cell-based; conditions: for RAW 264.7 cell survival: 128 μM; for cytotoxicity: low concentration (0 ~ 32 μM)
Protocol: RAW264.7 cells (2.5 × 10^4 cells/mL, 100 μL) were added into the 96-well plate and cultured at 37 °C in 5% CO2 for 24 h. After removing the medium and washing twice with PBS, 100 μL peptides (1, 2, 4, 8, 16, 32, 64 and 128 μM) were added to each well. PBS was served as the negative control. After incubation for 24 h, 20 μL MTT (5 mg/mL) was added into each well and incubated for another 4 h. Then, the supernatant was removed and 150 μL dimethylsulfoxide (DMSO) was added into the plate and shaken for 10 min. The absorbance of each well was measured at 570 nm and the survival rate of cells was calculated as follows: Survival (%) = [(Abspeptide/ Abscontrol)] × 100, where Abspeptide and Abscontrol present the absorbance of peptide and PBS control, respectively.

MDR E. coli = assay: Antibacterial activity after incubation in human serum (inhibition assay); assay type: cell-based, Escherichia coli; conditions: Supplementary Fig. 2c source data, mean
Protocol: Serum stability of R7 and its parent-L7 was tested as previously described with minor modifications[46],[53]. […] The samples were incubated at 4 °C for 15 min and centrifuged for 10 min at 12,000 rpm. The supernatants were analyzed by RP-HPLC or inhibition zone method. Moreover, after incubation in serum for 2 h, R7 was analyzed by matrix assisted laser desorption/ionization-time of flight mass spectrometry (MALDI-TOF MS) and high-performance liquid chromatography-mass spectrometry (HPLC-MS), respectively.
Supplementary Figure 2. Serum stability and release of peptides in human serum. a Detection of the peak area change of peptides in serum by RP-HPLC. b The remaining rate of peptides in bovine serum. c The antibacterial activity of peptides against MDR E. coli in serum detected by an inhibition assay. d The MALDI-TOF mass spectrometry of R7 after incubation in bovine serum for 2 h. The experiments were repeated three times. Data in a and d is representative of three biological replicates.
The results are given as the mean ± SD of three independent experiments in b and c. Different lower-case letters indicate a significant difference between the two groups (p<0.05).
(1 picture or pasted object on this page, not shown here)

MDR E. coli CVCC195 [2] = assay: Intestinal alkaline phosphatase (IAP) activity in duodenum, E. coli-challenged mice; assay type: in vivo, mouse; conditions: for IAP levels in mice: Fig. 5g source data, peptide + E. coli, mean; for IAP activity: duodenum, 12 h after E. coli infection, mice pre-treated with 7 μmol/kg peptide, ELISA
Protocol: (§1) After E. coli or LPS challenge, the mice were sacrificed at 12 h and 24 h, respectively, and the sera were collected to detect inflammatory cytokines (such as tumor necrosis factor-α (TNF-α), interleukin-6 (IL-6), interleukin-1β (IL-1β), and interleukin-10 (IL-10)) using the enzyme linked immunosorbent assay (ELISA) kits. To evaluate the specific activity of intestinal alkaline phosphatase (IAP), a 2 cm segment of duodenum was rapidly intercepted from the mice and homogenized; the IAP levels in the supernatant were detected by ELISA. In addition, the lungs were collected from the mice infected by E. coli after 12 and 24 h, respectively and were homogenized in sterile PBS for the bacterial counts assay.

LPS = assay type: in vivo, mouse; design: key: 1 represents a mouse death; 0 represents no death; conditions: Supplementary Fig. 3b source data, LPS challenge
Protocol: Supplementary Figure 3. Therapeutic eﬀicacy of cleavable chimeric peptide R7 in the mice
challenged with MDR E. coli or LPS After the intraperitoneal injection with MDR E. coli (a) or LPS
(b) at a concentration of LD100, the mice were treated with 7 μmol/kg R7 at 0.5 h and 8 h, respectively.
The mouse survival was recorded for 7 d. The mice injected with MDR E. coli/LPS or saline were used

MDR E. coli CVCC195 [3] = assay: Serum cytokines (TNF-α, IL-6, IL-1β, IL-10; ELISA) in E. coli-challenged mice; assay type: in vivo, mouse; design: unit not given beside the values; conditions: Fig. 5c-f source data, peptide + E. coli challenged mice, mean
Protocol: as §1

in vitro = in vitro ADME; conditions: for degradation in human serum: RP-HPLC (Supplementary Fig. 2)
[4] = incubation in human serum 0.5 h
[5] = event at day 2, one cell per mouse
[6] = event at day 3, one cell per mouse
[7] = event at day 7, one cell per entry
[8] = Supplementary Fig. 2b source data, human serum, RP-HPLC, mean, read-out: remaining rate in human serum

Compound	number of counted infiltrated inflammatory cells (MDR E. coli CVCC195 [1]; 12 h)	number of counted infiltrated inflammatory cells (MDR E. coli CVCC195 [1]; 24 h)	RAW 264.7 cell survival (RAW264.7 cells)	cytotoxicity (RAW264.7 cells)	antibacterial activity against MDR E. coli in human serum detected by an inhibition assay (MDR E. coli; incubation in human serum 0 h)	antibacterial activity against MDR E. coli in human serum detected by an inhibition assay (MDR E. coli; [4])	antibacterial activity against MDR E. coli in human serum detected by an inhibition assay (MDR E. coli; incubation in human serum 1 h)	antibacterial activity against MDR E. coli in human serum detected by an inhibition assay (MDR E. coli; incubation in human serum 2 h)	antibacterial activity against MDR E. coli in human serum detected by an inhibition assay (MDR E. coli; incubation in human serum 4 h)	antibacterial activity against MDR E. coli in human serum detected by an inhibition assay (MDR E. coli; incubation in human serum 8 h)	IAP levels in mice (MDR E. coli CVCC195 [2]; 12 h)	IAP levels in mice (MDR E. coli CVCC195 [2]; 24 h)	IAP activity (MDR E. coli CVCC195 [2])	therapeutic efficacy, survival, single-animal event (LPS; [5])	therapeutic efficacy, survival, single-animal event (LPS; [6])	therapeutic efficacy, survival, single-animal event (LPS; [7])	TNFα (MDR E. coli CVCC195 [3]; 12 h)	TNFα (MDR E. coli CVCC195 [3]; 24 h)	degradation in human serum (in vitro)	remaining at 0.5 h, 0.5 mM (in vitro; [8])	also measured
CSCC[C@H](NC(=O)[C@H](CCCNC(=N)N)NC(=O)[C@H](Cc1c[nH]c2ccccc12)NC(=O)[C@H](C)NC(=O)[C@H](Cc1c[nH]c2ccccc12)NC(=O)[C@H](CCCNC(=N)N)NC(=O)[C@H](Cc1c[nH]c2ccccc12)NC(=O)[C@H](C)NC(=O)[C@H](CCCCN)NC(=O)[C@@H](N)Cc1ccccc1)C(=O)N[C@@H](CCCCN)C(=O)N[C@@H](CCCCN)C(=O)N[C@@H](CC(C)C)C(=O)N[C@@H](C)C(=O)N[C@@H](C)C(=O)N1CCC[C@H]1C(=O)N[C@@H](CO)C(=O)O [L7] (H-FKAWRWAWRMKKLAAPS-OH)	32.847	26.4133	87.7%	no hemolysis and cytotoxicity	0.99	0.9833	0.9833	0.8667	0.78	0	646.785	420.095	646.8 U/g	1	1	0	75.496	66.872	almost identical to those in mouse serum	86.9%	remaining at 1 h, 0.5 mM (in vitro; [8]): 51.4%; remaining at 2 h, 0.5 mM (in vitro; [8]): 32%; remaining at 4 h, 0.5 mM (in vitro; [8]): 4.71%; remaining at 8 h, 0.5 mM (in vitro; Supplementary Fig. 2b source data, human serum, 8 h, RP-HPLC, mean, read-out: remaining rate in human serum): 0.839%
CSCC[C@H](NC(=O)[C@H](CCCNC(=N)N)NC(=O)[C@H](Cc1c[nH]c2ccccc12)NC(=O)[C@H](C)NC(=O)[C@H](Cc1c[nH]c2ccccc12)NC(=O)[C@H](CCCNC(=N)N)NC(=O)[C@H](Cc1c[nH]c2ccccc12)NC(=O)[C@H](C)NC(=O)[C@H](CCCCN)NC(=O)[C@H](Cc1ccccc1)NC(=O)[C@H](CCCNC(=N)N)NC(=O)[C@H](CCCNC(=N)N)NC(=O)[C@H](CCCCN)NC(=O)[C@H](CCCNC(=N)N)NC(=O)[C@H](CCCCN)NC(=O)[C@H](Cc1ccccc1)NC(=O)[C@H](Cc1ccccc1)NC(=O)[C@H](CO)NC(=O)[C@H](C)NC(=O)[C@H](CCCNC(=N)N)NC(=O)[C@@H](NC(=O)[C@H](CCCCN)NC(=O)[C@H](Cc1c[nH]c2ccccc12)NC(=O)[C@H](CCCNC(=N)N)NC(=O)CNC(=O)[C@H](CCC(N)=O)NC(=O)[C@@H](NC(=O)[C@@H](N)CCCNC(=N)N)C(C)C)C(C)C)C(=O)N[C@@H](CCCCN)C(=O)N[C@@H](CCCCN)C(=O)N[C@@H](CC(C)C)C(=O)N[C@@H](C)C(=O)N[C@@H](C)C(=O)N1CCC[C@H]1C(=O)N[C@@H](CO)C(=O)O [R7] (H-RVQGRWKVRASFFKRKRRFKAWRWAWRMKKLAAPS-OH)	14.3787	11.7743	58.2%	no hemolysis and cytotoxicity	0.8933	0.91	0.91	0.8967	0.9033	0.8967	514.632	541.948	514.6 U/g	1	1	0	51.956	49.098	almost identical to those in mouse serum	58.6%	remaining at 1 h, 0.5 mM (in vitro; [8]): 51.9%; remaining at 2 h, 0.5 mM (in vitro; [8]): 45.6%; remaining at 4 h, 0.5 mM (in vitro; [8]): 23%
